From patent US20220144847A1, “HETEROCYCLIC COMPOUND, PHARMACEUTICAL COMPOSITION COMPRISING SAME, PREPARATION METHOD THEREFOR, AND USE THEREOF” (Sichuan Kelun-Biotech Biopharmaceutical Co., Ltd., priority 2019, published 2022)

Legend:
RET-V804M = RET-V804M (Homo sapiens, UniProt P07949, V804M); assay: RET inhibition experiment (HTRF KinEASE-TK kit), mutant RET-V804M; assay type: biochemical; conditions: for inhibition at 0.01 µM: 10 nM (Table 2), read-out: Inhibition rate on RET-V804M; for IC50: read-out: The IC50 (nM) for inhibiting V804M
Procedure: Experimental method: According to the instructions of the HTRF KinEASE-TK kit (Cisbio), the compounds of the present disclosure were tested for their inhibitory effects on the activity of wild-type RET enzyme, mutant RET enzyme (RET-V804M, RET-V804L, and RET-M918T) and fusion-type RET enzyme (RET-CCDCl6). After pre-incubation of different RET enzymes and different concentrations of the test compounds at room temperature for 30 min, a substrate and adenosine triphosphate (ATP) were added to initiate the reaction. After incubation at room temperature for 40 min, TK antibody-cryptate and streptavidin-XL665 were added, and the test was performed after incubation at room temperature for 45 min. With the solvent group (DMSO) as the negative control and the buffer group (without RET enzyme) as the blank control, the relative inhibitory activity percentages (i.e., inhibition rates) of different concentrations of the compounds were computed as per the following formula:
(§1) Relative inhibitory activity percentage=1−(compound group of different concentrations−blank control)/(negative control−blank control)*100%
(§2) The relative inhibitory activity percentages of different concentrations of the compounds were plotted with respect to the compound concentrations, and the curve was fitted according to a four-parameter model to compute the IC50 value as per the following formula:
(§3) y=min+(max−min)/(1+(x/IC50)^(−Hillslope))
(§4) where y is the relative inhibitory activity percentage, max is the maximum value of the fitted curve, min is the minimum value of the fitted curve, x is the logarithmic concentration of the compound, and Hillslope is the slope of the curve.

VEGFR2 = VEGFR2 (Homo sapiens, UniProt P35968); assay: VEGFR2 inhibition experiment (HTRF KinEASE-TK kit); assay type: biochemical; conditions: read-out: Inhibition rate on VEGFR2; for inhibition at 0.03 µM: 30 nM; for inhibition at 0.3 µM: 300 nM; for inhibition at 0.1 µM: 100 nM
Procedure: Experimental method: According to the instructions of the HTRF KinEASE-TK kit (Cisbio), the compounds of the present disclosure were tested for their inhibitory effects on the VEGFR2 enzyme activity. After pre-incubation of the VEGFR2 enzyme and different concentrations of test compounds at room temperature for 30 min, a substrate and adenosine triphosphate (ATP) were added to initiate the reaction. After incubation at room temperature for 40 min, TK antibody-cryptate and streptavidin-XL665 were added, and the test was performed after incubation at room temperature for 45 min. With the solvent group (DMSO) as the negative control and the buffer group (without VEGFR2 enzyme) as the blank control, the relative inhibitory activity percentages (i.e., inhibition rates) of different concentrations of the compounds were computed as per the following formula:
as §1, §2, §3, §4

Sequence of RET-V804M (P07949 29-1114 V804M): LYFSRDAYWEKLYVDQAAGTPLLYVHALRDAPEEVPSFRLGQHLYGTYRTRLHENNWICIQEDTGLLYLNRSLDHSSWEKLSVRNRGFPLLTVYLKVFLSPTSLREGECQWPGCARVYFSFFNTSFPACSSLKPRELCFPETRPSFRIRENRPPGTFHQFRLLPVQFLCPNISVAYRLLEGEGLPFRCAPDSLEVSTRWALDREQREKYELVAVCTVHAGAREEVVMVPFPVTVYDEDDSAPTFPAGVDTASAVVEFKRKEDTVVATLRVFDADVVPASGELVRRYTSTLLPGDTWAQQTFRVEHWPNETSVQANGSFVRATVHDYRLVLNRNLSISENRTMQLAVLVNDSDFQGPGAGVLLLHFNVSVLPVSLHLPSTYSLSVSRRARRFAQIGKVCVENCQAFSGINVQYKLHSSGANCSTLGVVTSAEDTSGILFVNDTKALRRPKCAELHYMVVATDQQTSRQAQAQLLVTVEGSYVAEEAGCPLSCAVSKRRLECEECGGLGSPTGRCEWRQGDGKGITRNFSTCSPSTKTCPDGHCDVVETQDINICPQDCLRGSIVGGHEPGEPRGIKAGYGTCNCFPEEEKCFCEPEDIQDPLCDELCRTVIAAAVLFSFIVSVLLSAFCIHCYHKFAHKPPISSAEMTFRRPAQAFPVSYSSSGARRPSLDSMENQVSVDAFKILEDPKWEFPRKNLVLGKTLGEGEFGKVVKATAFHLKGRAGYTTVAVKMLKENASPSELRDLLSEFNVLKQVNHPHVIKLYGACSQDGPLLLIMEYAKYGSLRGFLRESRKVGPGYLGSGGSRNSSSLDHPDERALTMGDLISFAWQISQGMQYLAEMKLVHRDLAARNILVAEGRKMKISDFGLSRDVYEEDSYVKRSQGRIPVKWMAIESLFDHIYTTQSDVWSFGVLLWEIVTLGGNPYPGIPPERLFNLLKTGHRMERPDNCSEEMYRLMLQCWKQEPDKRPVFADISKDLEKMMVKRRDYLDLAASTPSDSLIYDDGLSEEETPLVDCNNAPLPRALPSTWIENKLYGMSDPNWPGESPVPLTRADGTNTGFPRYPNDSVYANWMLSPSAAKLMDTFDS
Sequence of VEGFR2 (P35968 20-1356, species assumed): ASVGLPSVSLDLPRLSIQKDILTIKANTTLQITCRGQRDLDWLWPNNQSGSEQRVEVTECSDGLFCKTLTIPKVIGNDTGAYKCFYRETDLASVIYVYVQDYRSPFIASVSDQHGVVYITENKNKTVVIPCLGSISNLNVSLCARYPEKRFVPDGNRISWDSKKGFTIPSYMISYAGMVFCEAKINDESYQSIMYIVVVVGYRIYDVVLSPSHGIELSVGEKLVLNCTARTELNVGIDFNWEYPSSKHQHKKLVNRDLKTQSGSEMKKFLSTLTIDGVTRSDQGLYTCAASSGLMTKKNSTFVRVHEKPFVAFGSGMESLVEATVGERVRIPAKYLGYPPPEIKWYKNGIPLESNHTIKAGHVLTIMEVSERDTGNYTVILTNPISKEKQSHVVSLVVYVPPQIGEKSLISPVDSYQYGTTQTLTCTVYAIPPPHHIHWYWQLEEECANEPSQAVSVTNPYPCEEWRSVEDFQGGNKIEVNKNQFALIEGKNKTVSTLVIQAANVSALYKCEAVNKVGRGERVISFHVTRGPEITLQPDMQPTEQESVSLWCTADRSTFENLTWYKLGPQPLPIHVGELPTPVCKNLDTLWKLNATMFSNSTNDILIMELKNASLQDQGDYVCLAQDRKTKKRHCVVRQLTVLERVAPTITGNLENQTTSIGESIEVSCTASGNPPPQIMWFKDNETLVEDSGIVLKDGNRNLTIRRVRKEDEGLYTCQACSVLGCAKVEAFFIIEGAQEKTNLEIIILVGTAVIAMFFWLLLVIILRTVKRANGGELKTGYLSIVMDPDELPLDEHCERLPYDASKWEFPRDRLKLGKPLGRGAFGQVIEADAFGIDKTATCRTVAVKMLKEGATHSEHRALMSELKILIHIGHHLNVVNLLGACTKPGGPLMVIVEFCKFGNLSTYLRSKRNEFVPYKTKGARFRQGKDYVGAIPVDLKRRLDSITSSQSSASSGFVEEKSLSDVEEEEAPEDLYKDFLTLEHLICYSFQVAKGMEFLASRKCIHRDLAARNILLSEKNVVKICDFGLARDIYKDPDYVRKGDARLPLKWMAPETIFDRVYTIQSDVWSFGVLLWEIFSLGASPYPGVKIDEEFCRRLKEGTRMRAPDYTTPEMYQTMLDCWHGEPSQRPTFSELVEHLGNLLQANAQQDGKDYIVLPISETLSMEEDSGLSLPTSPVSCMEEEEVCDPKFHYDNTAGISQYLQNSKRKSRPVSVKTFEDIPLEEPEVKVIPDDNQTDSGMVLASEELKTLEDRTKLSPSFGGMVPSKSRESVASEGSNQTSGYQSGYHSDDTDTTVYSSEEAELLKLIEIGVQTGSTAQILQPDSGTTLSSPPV

| SMILES | inhibition at 0.01 µM (RET-V804M) [%] | inhibition at 0.03 µM (VEGFR2) [%] | IC50 (RET-V804M) [nM] | inhibition at 0.3 µM (VEGFR2) [%] | inhibition at 0.1 µM (VEGFR2) [%] |
| --- | --- | --- | --- | --- | --- |
| Cc1cc(Nc2cc(C)[nH]n2)nc(-c2ccc(N3CC4CC(C3)N4Cc3ccc(-n4nccc4OC4CCC4)nc3)nc2)n1 [Compound 27, 2-(6-(6-((6-(5-cyclobutoxy-1H-pyrazol-1-yl)pyridin-3-yl)methyl)-3,6-diazabicyclo[3.1.1]heptan-3-yl)pyridin-3-yl)-6-methyl-N-(5-methyl-1H-pyrazol-3-yl)pyrimidin-4-amine] | 87 | 23 |  |  |  |
| Cc1cc(Nc2cc(C)[nH]n2)nc(-c2ccc(N3CC4CC(C3)N4Cc3ccc(-n4nccc4C)nc3)nc2)n1 [Compound 9, 6-methyl-2-(6-(6-((6-(5-methyl-1H-pyrazol-1-yl)pyridin-3-yl)methyl)-3,6-diazabicyclo[3.1.1]heptan-3-yl)pyridin-3-yl)-N-(5-methyl-1H-pyrazol-3-yl)pyrimidin-4-amine] |  |  | 5.43 ± 0.91 | 69 |  |
| CCc1ccnn1-c1ccc(CN2C3CC2CN(c2ccc(-c4nc(C)cc(Nc5cc(C)[nH]n5)n4)cn2)C3)cn1 [Compound 46, 2-(6-(6-((6-(5-ethyl-1H-pyrazol-1-yl)pyridin-3-yl)methyl)-3,6-diazabicyclo[3.1.1]heptan-3-yl)pyridin-3-yl)-6-methyl-N-(5-methyl-1H-pyrazol-3-yl)pyrimidin-4-amine] | 92 |  |  | 79 |  |
| Cc1cc(Nc2cc(C)[nH]n2)nc(-c2ccc(N3CC4CC(C3)N4Cc3ccc(-n4cc(Cl)c(C)n4)nc3)nc2)n1 [Compound 28, 2-(6-(6-((6-(4-chloro-3-methyl-1H-pyrazol-1-yl)pyridin-3-yl)methyl)-3,6-diazabicyclo[3.1.1]heptan-3-yl)pyridin-3-yl)-6-methyl-N-(5-methyl-1H-pyrazol-3-yl)pyrimidin-4-amine] |  |  | 10.4 ± 1.38 | 23 |  |
| Cc1cc(Nc2cc(C)[nH]n2)nc(-c2ccc(N3CC4CC(C3)N4Cc3ccc(-c4cnn(C(C)C)c4)nc3)nc2)n1 [Compound 135, 2-(6-(6-((6-(1-isopropyl-1H-pyrazol-4-yl)pyridin-3-yl)methyl)-3,6-diazabicyclo[3.1.1]heptan-3-yl)pyridin-3-yl)-6-methyl-N-(5-methyl-1H-pyrazol-3-yl)pyrimidin-4-amine] | 65 |  |  |  | 34 |
| Cc1cc(Nc2cc(C)[nH]n2)nc(-c2ccc(N3CC4CC(C3)N4Cc3ccc(F)cc3)nc2)n1 [Compound 83, 2-(6-(6-(4-fluorobenzyl)-3,6-diazabicyclo[3.1.1]heptan-3-yl)pyridin-3-yl)-6-methyl-N-(5-methyl-1H-pyrazol-3-yl)pyrimidin-4-amine] | 56 |  |  |  | 18 |
| Cc1cnn(-c2ccc(CN3C4CC3CN(c3ccc(-c5nc(C)cc(Nc6cc(C)[nH]n6)n5)cn3)C4)cc2)c1 [Compound 88, 6-methyl-2-(6-(6-(4-(4-methyl-1H-pyrazol-1-yl)benzyl)-3,6-diazabicyclo[3.1.1]heptan-3-yl)pyridin-3-yl)-N-(5-methyl-1H-pyrazol-3-yl)pyrimidin-4-amine] | 62 |  |  |  | 32 |
| Cc1cc(Nc2cc(C)[nH]n2)nc(-c2ccc(N3CC4CC(C3)N4Cc3ccc(-n4ccc(F)n4)nc3)nc2)n1 [Compound 63, 2-(6-(6-((6-(3-fluoro-1H-pyrazol-1-yl)pyridin-3-yl)methyl)-3,6-diazabicyclo[3.1.1]heptan-3-yl)pyridin-3-yl)-6-methyl-N-(5-methyl-1H-pyrazol-3-yl)pyrimidin-4-amine] | 65 |  |  |  | 38 |
| Cc1cc(Nc2cc(C)[nH]n2)nc(-c2ccc(N3CC4CC(C3)N4Cc3ccc(-n4ccc(CF)n4)nc3)nc2)n1 [Compound 31, 2-(6-(6-((6-(3-(fluoromethyl)-1H-pyrazol-1-yl)pyridin-3-yl)methyl)-3,6-diazabicyclo[3.1.1]heptan-3-yl)pyridin-3-yl)-6-methyl-N-(5-methyl-1H-pyrazol-3-yl)pyrimidin-4-amine] | 81 | 17 |  |  |  |
